Values quoted from earlier work, collected in patent US20180250285A1 (Teva Pharmaceutical Industries Ltd., priority 2012, published 2018).

Experiments:
[1] = test system: Huntington's disease patients
[2] = test system: patients with HD
[3] = in vivo

| Compound | tertiary endpoint UHDRS-TMS (changes in motor function) and individual items within the mMS (gait, dysarthria) ([1]; 45 mg daily or 45 mg twice daily for 6 months) | primary endpoint: effect on a specific subset of motor symptoms defined in the mMS ([1]; at 26 weeks, 45 mg daily or 45 mg twice daily) | symptomatic relief incl. improved hand movements, gait and balance [2] | oral bioavailability [3] |
| --- | --- | --- | --- | --- |
| CCCN1CCC(c2cccc(S(C)(=O)=O)c2)CC1 [pridopidine, 4-[3-(methylsulfonyl)phenyl]-1-propyl-piperidine] | statistically significant effect of treatment | not met | significant symptomatic relief |  |
| CCN(C(=O)c1c(O)c2c(Cl)cccc2n(C)c1=O)c1ccccc1 [Laquinimod] |  |  |  | high |
